Data as given in US8389011B2, “Pharmaceutical compositions of cholesteryl ester transfer protein inhibitors” (Bend Research, Inc., priority 2000, dated 2013).

Experiment: In vitro dissolution test, microcentrifuge method, in phosphate buffered saline (PBS) pH 6.5
Format: physicochemical
Details: for Concentration / AUC: Table 18, Drug 10 or Drug 11, PBS pH 6.5, 37° C., TCmax 1000 μg/mL
Experimental: The compositions comprising the CETP inhibitor and concentration-enhancing polymer provide enhanced concentration of the dissolved CETP inhibitor in in vitro dissolution tests. […] An appropriate PBS solution is an aqueous solution comprising 20 mM sodium phosphate (Na2HPO4), 47 mM potassium phosphate (KH2PO4), 87 mM NaCl, and 0.2 mM KCl, adjusted to pH 6.5 with NaOH. An appropriate MFD solution is the same PBS solution wherein additionally is present 7.3 mM sodium taurocholic acid and 1.4 mM of 1-palmitoyl-2-oleyl-sn-glycero-3-phosphocholine. In particular, a composition of the present invention can be dissolution-tested by adding it to MFD or PBS solution and agitating to promote dissolution.
Indeed, for some extremely insoluble CETP inhibitors, in order to identify the MDC achieved it may be necessary to use an amount of test composition such that if all of the CETP inhibitor dissolved, the CETP inhibitor concentration would be 10,000-fold or even more, that of the equilibrium concentration of the CETP inhibitor.
The MDC is taken to be the maximum value of dissolved CETP inhibitor measured over the duration of the test.
Filtration can be conducted using a 13 mm, 0.45 μm polyvinylidine difluoride syringe filter sold by Scientific Resources under the trademark TITAN®. Centrifugation is typically carried out in a polypropylene microcentrifuge tube by centrifuging at 13,000 G for 60 seconds. Other similar filtration or centrifugation methods can be employed and useful results obtained.
The spray-dried dispersions of Examples 6 and 7 were evaluated in an in vitro dissolution test using a microcentrifuge method. In this test, the spray-dried dispersion was added to a microcentrifuge tube for a Drug 2 dose of about 1000 μg/mL (7.2 mg for Example 6, 18 mg for Example 7). The tube was placed in a 37° C. sonicating bath, and 1.8 mL phosphate buffered saline (PBS) at pH 6.5 and 290 mOsm/kg was added. The samples were quickly mixed using a vortex mixer for about 60 seconds. The samples were centrifuged at 13,000 G at 37° C. for 1 minute. The resulting supernatant solution was then sampled and diluted 1:6 (by volume) with methanol and then analyzed by high-performance liquid chromatography (HPLC). The contents of the tubes were mixed on the vortex mixer and allowed to stand undisturbed at 37° C. until the next sample was taken. Samples were collected at 4, 10, 20, 40, 90, and 1200 minutes.
For Control 2, an in vitro dissolution test was performed using the procedures described above except that 1.8 mg of crystalline Drug 2 was used.
In this method, 7.2 mg of each spray-dried dispersion was added to a 2-mL microcentrifuge tube. The tube was placed in a 37° C. sonicating bath, and 1.8 mL of a phosphate-buffered saline (PBS) solution at pH 6.5 and 290 mOsm/kg was added, resulting in a TCmax of 400 μg/mL. The samples were quickly mixed using a combination of vortex mixer and sonication for about 90 seconds. The samples were centrifuged at 13,000 G at 37° C. for 1 minute. The resulting supernatant solution was then sampled and diluted 1:6 (by volume) with methanol and then analyzed by HPLC. The tubes were then mixed on the vortex mixer and allowed to stand undisturbed at 37° C. until the next sample. Samples were collected at 4, 10, 20, 40, 90 and 1200 minutes.
For Control 5, an in vitro dissolution test was performed using the procedure described above, except that 0.72 mg of non-crystalline Drug 3 was placed in a microcentrifuge tube and mixed with 1.8 mL of PBS.
In this method, 15 mg of each SDD was added to a 2-mL microcentrifuge tube. The tube was placed in a 37° C. sonicating bath, and 1.5 mL of a phosphate-buffered saline (PBS) solution at pH 6.5 and 290 mOsm/kg) was added, resulting in a TCmax of 1000 μg/mL. The samples were quickly mixed using a combination of vortex mixer and sonication for about 90 seconds.

[1] = Table 19: Drugs 10 and 11, PBS pH 6.5, TCmax 1000 μg/mL

Row | Concentration (0 min) | Concentration (4 min) | Concentration (10 min) | Concentration (20 min) | Concentration (40 min) | Concentration (90 min) | Concentration (1200 min) | AUC (to 0 min) | AUC (to 4 min) | AUC (to 10 min) | AUC (to 20 min) | AUC (to 40 min) | AUC (to 90 min) | AUC (to 1200 min) | AUC90 [1] | Cmax, 90 [1] | AUC90 (Table 34: Drug 12, PBS) | Cmax, 90 (Table 34: Drug 12, PBS) | Structure (SMILES)
1 | 0 ng/mL | 0 ng/mL | 1000 ng/mL | 3000 ng/mL | 6000 ng/mL | 1000 ng/mL | 0 ng/mL | 0 min-μg/mL | 0 min-μg/mL | 0 min-μg/mL | 0 min-μg/mL | 100 min-μg/mL | 300 min-μg/mL | 1,100 min-μg/mL | 300 min-μg/mL | 6000 ng/mL | – | – | CC(C)c1cc2c(c(-c3ccc(F)cc3)c1[C@@H](F)c1ccc(C(F)(F)F)cc1)[C@@H](O)CC1(CCC1)C2 [Control 12, (4′S)-5′-(4-fluorophenyl)-6′-[(S)-fluoro[4-(trifluoromethyl)phenyl]methyl]-3′,4′-dihydro-7′-(1-methylethyl)-spiro[cyclobutane-1,2′(1′H)-naphthalen]-4′-ol]
2 | 0 ng/mL | 1000 ng/mL | 1000 ng/mL | 1000 ng/mL | 1000 ng/mL | 1000 ng/mL | 0 ng/mL | 0 min-μg/mL | 0 min-μg/mL | 0 min-μg/mL | 0 min-μg/mL | 0 min-μg/mL | 100 min-μg/mL | 600 min-μg/mL | 80 min-μg/mL | 1000 ng/mL | – | – | CCc1cc(Oc2cccc(N(Cc3cccc(OC(F)(F)C(F)F)c3)C[C@@H](O)C(F)(F)F)c2)ccc1Cl [Control 13, (2R)-3-[[3-(4-chloro-3-ethylphenoxy)phenyl][[3-(1,1,2,2-tetrafluoroethoxy)phenyl]methyl]amino]-1,1,1-trifluoro-2-propanol]
3 | – | – | – | – | – | – | – | – | – | – | – | – | – | – | – | – | <88 min-μg/mL | <1000 ng/mL | CC[C@@H]1C[C@H](N(Cc2cc(C(F)(F)F)cc(C(F)(F)F)c2)C(=O)OC)c2cc(C(F)(F)F)ccc2N1C(=O)OC(C)C [Control 14, [2R,4S]4-[(3,5-bis-trifluoromethyl-benzyl)-methoxycarbonyl-amino]-2-ethyl-6-trifluoromethyl-3,4-dihydro-2H-quinoline-1-carboxylic acid isopropyl ester]
